Activity calls are given as the source filed them. The rule behind the calls is not given here.
Tested on: Streptococcus pyogenes
Test: Inhibition of Streptococcus pyogenes SrtA deltaN81 mutant expressed in Escherichia coli BL21(DE3) at 100 uM using Abz-LPETA-Dap(Dnp) as substrate preincubated for 10 mins followed by substrate addition measured every min for 2.5 hrs by fluorimetric assay relative to control

Point of comparison: `NNC(=O)c1ccnc(C(=O)NN)c1`, inhibition 3%. Against it:
- O=C(c1cccs1)N1CCN(c2ncccn2)CC1 — higher, 10.2%
- Nc1c(C(=O)NCC(O)c2ccccc2)cnn1-c1ccccc1 (stereo not drawn) — higher, 35.4%
- CCC(=O)c1cccs1 — lower, 0.1%
- Cn1c(=O)c2[nH]cnc2n(C)c1=O — lower, 2.3%
- COC(=O)c1ccnc(C(=O)OC)c1 — higher, 5.5%
- Nc1[nH]c2ccccc2c1C(=O)NCCc1ccc(Cl)cc1Cl — higher, 54.8%
- O=C(O)Cc1c[nH]cn1 — lower, -7.6%
- CCOC(=O)c1cc2ccc(Cl)cc2[nH]1 — higher, 15%
- Oc1ccc2ncccc2c1 — higher, 115%
- Nc1[nH]c2cc(Cl)ccc2c1C(=O)NCCc1ccc(Cl)cc1 — higher, 91.9%
- O=C(O)c1cccs1 — lower, 1.4%
- Cn1c2c(c3ccccc31)C(=O)NCC2 — higher, 20.5%
- COc1ccc2[nH]cc(CCN)c2c1 — lower, -1.9%
- CCOC(=O)c1cc(-c2ccccc2)c2cccc(O)c2c1 — higher, 60.2%
- O=C(O)Cc1c[nH]c2ccccc12 — higher, 8.6%
- O=C(O)CCC(=O)c1ccc2ccccc2c1 — higher, 86.6%
- CC(C)NCC(O)COc1cccc2ccccc12 (stereo not drawn) — lower, -4.2%
- O=Cc1c[nH]c2cc(Cl)ccc12 — higher, 6.4%
- Nc1ncccc1CO — lower, -0.5%
- CCOC(=O)NCCc1c[nH]c2ccc(OC)cc12 — higher, 11.7%
- NCCc1c[nH]c2ccccc12 — lower, -5.3%
- CCOC(=O)c1[nH]c2cc(Cl)ccc2c1/C=N/c1ccccc1 — higher, 3.7%
- Cc1ccc(S(=O)(=O)/N=C/c2cc3ccc(Cl)cc3[nH]2)cc1 — higher, 8.8%
- NC(Cc1c[nH]c2ccccc12)C(=O)O (stereo not drawn) — higher, 5.5%
- COc1cc(NS(=O)(=O)c2ccc(N)cc2)ncn1 — higher, 12%
- Nc1[nH]c2cc(Cl)ccc2c1C(=O)N1CCOCC1 — higher, 91.6%
- O=[N+]([O-])c1cccc2[nH]ccc12 — higher, 21.2%
- Nc1[nH]c2cc(C(F)(F)F)ccc2c1C(=O)NC1CCCCC1 — lower, -6.3%
- CCOC(=O)c1[nH]c2cc(Cl)ccc2c1N — higher, 12.8%
- Nc1c(C(=O)N2CCOCC2)cnn1Cc1ccccc1 — lower, 1%
- c1ccc2c3c([nH]c2c1)CNCC3 — higher, 10.1%
- O=C(O)CCC(=O)c1cccs1 — higher, 9.8%
- O=C(O)CCC(=O)c1c(C(=O)O)[nH]c2cc(Cl)ccc12 — higher, 15.1%
- CC(=O)NCCc1c[nH]c2ccc(O)cc12 — higher, 10.8%
- COc1ccc(CCNC(=O)c2cnn(-c3ccccc3)c2N)cc1OC — higher, 4.6%
- CCC(=O)N1CCN(c2ncccn2)CC1 — higher, 11.6%
- O=C1CCN2c3ccccc3Sc3ccc(Cl)c1c32 — higher, 11.1%
- CCOC(=O)c1[nH]c2cc(Cl)ccc2c1C(=O)O — higher, 26.3%
- Nc1ncccn1 — higher, 7.5%
- O=C(O)c1ccc2ccccc2n1 — higher, 23.1%
- Cn1c(C(=O)O)cc2ccccc21 — higher, 8.2%
- N#CCC(=O)c1c[nH]c2cc(F)ccc12 — higher, 10.7%
- CCOC(=O)c1[nH]c2cc(Cl)ccc2c1C(=O)CCC(=O)OC — higher, 23.8%
- O=Cc1ccc[nH]1 — higher, 3.2%
- O=Cc1ccc2[nH]ccc2c1 — higher, 11.3%
- COC(=O)c1cc2ccc(Cl)cc2[nH]1 — higher, 28.2%
- O=c1cc[nH]c(=O)[nH]1 — lower, 2.7%
- Nc1nccc(O)n1 — higher, 14.5%
- O=Cc1c[nH]c2ccc(Cl)cc12 — higher, 12.3%
- CC(C(=O)O)c1ccc2cc(OS(C)(=O)=O)ccc2c1 (stereo not drawn) — higher, 17%
- Nc1ccc(S(=O)(=O)Nc2ccccn2)cc1 — higher, 3.8%
- O=Cc1c[nH]c2ccccc12 — lower, 1.5%
- CC(=O)NCCc1c[nH]cn1 — higher, 3.8%
- O=Cc1nc2ccc(Cl)cc2[nH]1 — higher, 19.9%
- Nc1ncncc1C=O — higher, 20.7%
- CCCN1CCOC2c3c(ccc4[nH]ccc34)OCC21 (stereo not drawn) — higher, 13.4%
- Nc1[nH]c2ccccc2c1C(=O)NC1CC1 — higher, 29.2%
- O=C(O)c1cc2ccccc2s1 — higher, 4.5%
- COC(=O)c1cc2ccccc2[nH]1 — higher, 5.1%
- O=C(O)c1cc2ccccc2[nH]1 — higher, 4.5%
- CCOC(=O)c1[nH]c2cc(Cl)ccc2c1C=O — higher, 25.7%
- COc1ccc2[nH]cc(CCNC(C)=O)c2c1 — higher, 16%
- O=C(O)c1[nH]c2cc(Cl)ccc2c1C(=O)Cc1ccc(Cl)cc1 — higher, 28.3%
- COc1cccc2c3c(ccc12)NC(=O)CC3 — higher, 54.2%
- CCOC(=O)c1[nH]c2cc(Cl)ccc2c1C#Cc1ccccc1 — higher, 118%
- O=C(O)c1cc2cc(Cl)ccc2[nH]1 — higher, 9.1%
- O=c1c2cc3cc(Cl)ccc3nc2ncn1N1CCCCC1 — higher, 42.2%
- CCOC(=O)c1c(C=O)c(C)n(-c2ccccc2)c1C — lower, 2.9%
- CCOC(=O)c1cc2ccccc2[nH]1 — higher, 16.4%
- COc1ccc(C(O)c2[nH]c3ccccc3c2CCN)cc1 (stereo not drawn) — higher, 60.8%

Tested on: Streptococcus pyogenes
Test: Inhibition of Streptococcus pyogenes SrtA deltaN81 mutant expressed in Escherichia coli BL21(DE3) at 10 uM using Abz-LPETA-Dap(Dnp) as substrate preincubated for 10 mins followed by substrate addition measured every min for 2.5 hrs by fluorimetric assay relative to control

`Nc1[nH]c2ccccc2c1C(=O)NCCc1ccc(Cl)cc1Cl` and `Nc1[nH]c2cc(Cl)ccc2c1C(=O)NCCc1ccc(Cl)cc1` cannot be ordered by inhibition: greater than 50% for the first, greater than 50% for the second.

`CCOC(=O)c1cc(-c2ccccc2)c2cccc(O)c2c1` and `CCOC(=O)c1[nH]c2cc(Cl)ccc2c1C#Cc1ccccc1` cannot be ordered by inhibition: greater than 50% for the first, greater than 50% for the second.

`O=C(O)CCC(=O)c1ccc2ccccc2c1` and `COc1ccc(C(O)c2[nH]c3ccccc3c2CCN)cc1` (stereo not drawn) cannot be ordered by inhibition: greater than 50% for the first, greater than 50% for the second.

`Nc1[nH]c2cc(Cl)ccc2c1C(=O)N1CCOCC1` and `COc1cccc2c3c(ccc12)NC(=O)CC3` cannot be ordered by inhibition: greater than 50% for the first, greater than 50% for the second.

Tested on: not listed separately
Test: Solubility of the compound
Type: physicochemical

In the case of `Nc1[nH]c2cc(Cl)ccc2c1C(=O)N1CCOCC1`, the solubility is reported as “Soluble”.

Tested on: not listed separately
Test: (§1) Inhibition of Streptococcus pyogenes SrtA deltaN81 mutant expressed in Escherichia coli BL21(DE3) using Abz-LPETA-Dap(Dnp) as substrate preincubated for 10 mins followed by substrate addition measured every min for 2.5 hrs by fluorimetric assay

Work on `Nc1[nH]c2cc(Cl)ccc2c1C(=O)N1CCOCC1` yielded an IC50 of 10 µM.

Tested on: Streptococcus pyogenes
Test: as §1

For `Nc1[nH]c2ccccc2c1C(=O)N1CCOCC1`, the inhibition was “inactive”.
For `O=C(Nc1[nH]c2ccccc2c1C(=O)N1CCOCC1)c1ccccc1`, the inhibition was “inactive”.
With `Nc1[nH]c2ccccc2c1C(=O)N1CCCCC1` the inhibition was “inactive”.

Tested on: Staphylococcus aureus
Test: Inhibition of […] SrtA deltaN59 mutant expressed in Escherichia coli BL21(DE3) at 100 uM using Abz-LPETG-Dap(Dnp) as substrate preincubated for 10 mins followed by substrate addition measured every min for 2.5 hrs by fluorimetric assay

For `Nc1[nH]c2cc(Cl)ccc2c1C(=O)N1CCOCC1`, the inhibition was “inactive”.

Tested on: Streptococcus pyogenes
Test: Mixed-type inhibition of Streptococcus pyogenes SrtA deltaN81 mutant expressed in Escherichia coli BL21(DE3) at 5 to 10 uM using Abz-LPETA-Dap(Dnp) as substrate preincubated for 10 mins followed by substrate addition measured every min for 2 hrs by fluorimetric assay relative to control

For `Nc1[nH]c2cc(Cl)ccc2c1C(=O)N1CCOCC1`, the inhibition was “Active”.

Tested on: not listed separately
Test: Binding affinity to NT-647 labeled Streptococcus pyogenes His-tagged SrtA deltaN81 mutant expressed in Escherichia coli BL21(DE3) by microscale thermophoresis method

`Nc1[nH]c2cc(Cl)ccc2c1C(=O)N1CCOCC1` gave a Kd of 60 µM.

Tested on: Streptococcus pyogenes
Test: Induction of aggregation of NT-647 labeled Streptococcus pyogenes His-tagged SrtA deltaN81 mutant expressed in Escherichia coli BL21(DE3) by microscale thermophoresis method

For `Nc1[nH]c2cc(Cl)ccc2c1C(=O)N1CCOCC1`, the Activity was “inactive”.

From ChEMBL document CHEMBL4325849, “Identification of potential antivirulence agents by substitution-oriented screening for inhibitors of Streptococcus pyogenes sortase A” (Eur J Med Chem, 2019)
